Experimental data reported in PMC6199744, “Development of Chemical Proteomics for the Folateome and Analysis of the Kinetoplastid Folateome” (ACS Infectious Diseases, 2018).
Where two headings read alike, the source gives them in different places.

What was measured:
Format in all cases: binding
[1] = biological target: T1, HeLa cell extract proteins (Homo sapiens, UniProt P08238)
T1 construct: endogenous in cells; host or cells: HeLa cell extract

[2] = biological target: T2, HeLa cell extract proteins (Homo sapiens, UniProt P49411)
T2 construct: endogenous in cells; host or cells: HeLa cell extract

[3] = biological target: T3, HeLa cell extract proteins (Homo sapiens, UniProt Q6P3X3)
T3 construct: endogenous in cells; host or cells: HeLa cell extract

[4] = biological target: T4, HeLa cell extract proteins (Homo sapiens, UniProt Q9HCC0)
T4 construct: endogenous in cells; host or cells: HeLa cell extract
T4 sequence (Q9HCC0 23-563): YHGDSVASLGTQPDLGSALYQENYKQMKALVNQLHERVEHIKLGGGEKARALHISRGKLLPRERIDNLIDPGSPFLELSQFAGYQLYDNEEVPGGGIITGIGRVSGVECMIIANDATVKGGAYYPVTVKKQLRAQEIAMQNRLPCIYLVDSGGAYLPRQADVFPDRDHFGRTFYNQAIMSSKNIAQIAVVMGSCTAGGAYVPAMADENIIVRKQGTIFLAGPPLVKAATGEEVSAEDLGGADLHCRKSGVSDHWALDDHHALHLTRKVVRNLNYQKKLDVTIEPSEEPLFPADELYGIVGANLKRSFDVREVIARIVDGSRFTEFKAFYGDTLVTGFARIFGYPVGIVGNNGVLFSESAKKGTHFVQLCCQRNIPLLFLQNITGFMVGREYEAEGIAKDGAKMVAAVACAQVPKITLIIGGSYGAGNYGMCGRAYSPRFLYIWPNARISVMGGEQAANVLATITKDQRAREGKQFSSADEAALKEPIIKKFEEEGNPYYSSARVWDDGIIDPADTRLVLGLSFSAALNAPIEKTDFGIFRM

[5] = biological target: T5, HeLa cell extract proteins (Homo sapiens, UniProt P06733)
T5 construct: endogenous in cells; host or cells: HeLa cell extract

[6] = biological target: T6, HeLa cell extract proteins (Homo sapiens, UniProt Q14CZ7)
T6 construct: endogenous in cells; host or cells: HeLa cell extract
T6 sequence (Q14CZ7 1-662): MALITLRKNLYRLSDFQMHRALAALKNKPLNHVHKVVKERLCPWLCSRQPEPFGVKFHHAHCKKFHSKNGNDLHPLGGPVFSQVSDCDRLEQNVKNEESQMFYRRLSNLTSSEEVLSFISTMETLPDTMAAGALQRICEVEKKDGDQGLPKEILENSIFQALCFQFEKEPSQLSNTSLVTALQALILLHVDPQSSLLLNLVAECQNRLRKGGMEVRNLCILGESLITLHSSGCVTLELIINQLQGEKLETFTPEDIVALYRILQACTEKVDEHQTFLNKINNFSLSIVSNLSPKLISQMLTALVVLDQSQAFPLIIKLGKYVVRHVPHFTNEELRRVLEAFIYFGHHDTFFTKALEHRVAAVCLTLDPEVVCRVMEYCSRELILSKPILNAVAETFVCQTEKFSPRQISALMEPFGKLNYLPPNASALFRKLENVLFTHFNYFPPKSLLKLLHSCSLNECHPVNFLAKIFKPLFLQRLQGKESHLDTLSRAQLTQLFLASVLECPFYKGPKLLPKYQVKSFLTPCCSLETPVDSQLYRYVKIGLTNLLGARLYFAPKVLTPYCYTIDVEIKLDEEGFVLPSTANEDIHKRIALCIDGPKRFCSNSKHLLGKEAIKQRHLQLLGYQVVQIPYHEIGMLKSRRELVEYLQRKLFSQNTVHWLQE

[7] = biological target: T7, HeLa cell extract proteins (Homo sapiens, UniProt P00966)
T7 construct: endogenous in cells; host or cells: HeLa cell extract
T7 sequence (P00966 1-412): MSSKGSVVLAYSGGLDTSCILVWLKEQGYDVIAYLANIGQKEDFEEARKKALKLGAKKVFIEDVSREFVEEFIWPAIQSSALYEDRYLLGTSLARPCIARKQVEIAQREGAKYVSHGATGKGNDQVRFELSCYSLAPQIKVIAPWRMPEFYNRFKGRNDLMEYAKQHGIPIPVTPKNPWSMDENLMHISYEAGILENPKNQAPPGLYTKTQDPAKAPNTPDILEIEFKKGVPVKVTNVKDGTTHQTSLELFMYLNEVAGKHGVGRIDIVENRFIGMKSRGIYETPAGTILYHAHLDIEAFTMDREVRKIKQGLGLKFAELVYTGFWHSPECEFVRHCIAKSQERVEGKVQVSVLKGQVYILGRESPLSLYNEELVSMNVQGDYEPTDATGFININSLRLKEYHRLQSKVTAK

[8] = biological target: T8, HeLa cell extract proteins (Homo sapiens, UniProt P49336)
T8 construct: endogenous in cells; host or cells: HeLa cell extract

[9] = HeLa, protein HSP90AB1 (HEAT SHOCK PROTEIN HSP 90-BETA.)
[10] = HeLa, protein ENO1 (ISOFORM ALPHA-ENOLASE OF ALPHA-ENOLASE.)
[11] = HeLa, protein ASS1 (ARGININOSUCCINATE SYNTHASE.)

T1 sequence (P08238 whole entry): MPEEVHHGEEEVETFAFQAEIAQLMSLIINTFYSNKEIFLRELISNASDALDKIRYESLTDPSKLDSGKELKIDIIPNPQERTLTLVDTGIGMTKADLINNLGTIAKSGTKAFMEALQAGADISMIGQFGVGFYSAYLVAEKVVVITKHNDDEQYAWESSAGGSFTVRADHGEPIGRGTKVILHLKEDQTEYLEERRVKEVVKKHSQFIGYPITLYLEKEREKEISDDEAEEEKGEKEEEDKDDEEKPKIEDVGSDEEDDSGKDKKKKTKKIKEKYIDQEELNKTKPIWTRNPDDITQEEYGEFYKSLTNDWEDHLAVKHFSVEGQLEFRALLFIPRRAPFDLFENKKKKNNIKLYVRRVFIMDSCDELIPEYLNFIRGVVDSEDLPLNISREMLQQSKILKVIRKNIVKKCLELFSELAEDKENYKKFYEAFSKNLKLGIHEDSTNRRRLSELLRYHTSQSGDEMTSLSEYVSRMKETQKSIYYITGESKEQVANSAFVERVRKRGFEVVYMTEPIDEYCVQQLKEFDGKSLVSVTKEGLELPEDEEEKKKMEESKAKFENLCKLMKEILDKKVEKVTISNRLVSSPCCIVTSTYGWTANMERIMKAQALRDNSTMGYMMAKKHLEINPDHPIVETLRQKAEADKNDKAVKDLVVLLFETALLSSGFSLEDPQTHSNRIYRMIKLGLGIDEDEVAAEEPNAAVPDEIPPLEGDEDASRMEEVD
T5 sequence (P06733 whole entry): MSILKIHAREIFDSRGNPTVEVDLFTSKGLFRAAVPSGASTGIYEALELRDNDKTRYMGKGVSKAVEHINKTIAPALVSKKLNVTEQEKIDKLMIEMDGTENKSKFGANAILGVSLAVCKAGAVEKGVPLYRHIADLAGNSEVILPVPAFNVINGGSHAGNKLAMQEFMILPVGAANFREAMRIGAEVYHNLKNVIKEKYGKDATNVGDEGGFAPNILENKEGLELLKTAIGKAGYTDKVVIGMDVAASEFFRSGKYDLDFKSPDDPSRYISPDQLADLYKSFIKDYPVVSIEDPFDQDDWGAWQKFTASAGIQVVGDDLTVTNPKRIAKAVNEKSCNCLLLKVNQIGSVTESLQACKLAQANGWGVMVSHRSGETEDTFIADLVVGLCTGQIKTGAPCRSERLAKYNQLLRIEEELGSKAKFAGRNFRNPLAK
T8 sequence (P49336 whole entry): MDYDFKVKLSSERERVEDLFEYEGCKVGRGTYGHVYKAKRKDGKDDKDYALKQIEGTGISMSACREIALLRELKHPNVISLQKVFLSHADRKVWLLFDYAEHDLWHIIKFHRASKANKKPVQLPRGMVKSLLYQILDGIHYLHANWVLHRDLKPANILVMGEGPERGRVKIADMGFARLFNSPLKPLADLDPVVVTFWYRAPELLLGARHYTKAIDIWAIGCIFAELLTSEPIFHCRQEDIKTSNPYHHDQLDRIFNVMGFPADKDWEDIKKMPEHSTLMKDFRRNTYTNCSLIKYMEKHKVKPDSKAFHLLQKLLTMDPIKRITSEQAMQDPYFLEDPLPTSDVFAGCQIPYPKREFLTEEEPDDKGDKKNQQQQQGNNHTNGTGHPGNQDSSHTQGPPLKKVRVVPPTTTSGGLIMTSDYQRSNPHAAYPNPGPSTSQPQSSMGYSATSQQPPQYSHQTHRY

`Nc1nc2cccc(-c3ccccc3)c2n1Cc1ccc(Cl)c(Cl)c1` [compound 3] was tested, and the “fold changes relative to vehicle control” value [1, 9] was 1.06 fold, the “fold changes relative to vehicle control” value ([2]; protein TUFM, HeLa) was 0.92 and the “fold changes relative to vehicle control” value ([3]; captured protein TTC27, HeLa) was 0.81. For the same compound, the “fold changes relative to vehicle control” value ([4]; captured protein MCCC2, HeLa) was 0.86, the “fold changes relative to vehicle control” value [5, 10] was 0.84 fold and the “fold changes relative to vehicle control” value ([6]; captured protein FASTKD3, HeLa) was 0.95. The “fold changes relative to vehicle control” value ([7]; HeLa, protein ASS1 (ARGININ[…].)) was 0.97 fold and the “fold changes relative to vehicle control” value ([8]; captured protein CDK8, HeLa) was 1.03.

For `NCCOCCOCC(=O)Nc1nc2ncc(CNc3ccc(C(=O)NC(CCC(=O)O)C(=O)O)cc3)nc2c(=O)[nH]1` (centres unmarked) [compound 6], the “fold changes relative to vehicle control” value ([1]; HeLa, protein HSP90AB1) was 1.36, the “fold changes relative to vehicle control” value ([2]; protein TUFM, HeLa) was 1.07 and the “fold changes relative to vehicle control” value ([3]; protein TTC27, HeLa) was 0.8. For the same compound, the “fold changes relative to vehicle control” value ([4]; HeLa, protein MCCC2) was 1, the “fold changes relative to vehicle control” value ([5]; HeLa, protein ENO1) was 1.26 and the “fold changes relative to vehicle control” value ([6]; HeLa, protein FASTKD3) was 1.01. For the same compound, the “fold changes relative to vehicle control” value ([7]; HeLa, protein ASS1) was 1.43 and the “fold changes relative to vehicle control” value ([8]; protein CDK8, HeLa) was 0.9.

For `Nc1nc2[nH]cc(CCc3ccc(C(=O)N[C@@H](CCC(=O)O)C(=O)O)cc3)c2c(=O)[nH]1` [PTX, pemetrexed], the “fold changes relative to vehicle control” value [1] was 1.14, the “fold changes relative to vehicle control” value [2] was 0.97 and the “fold changes relative to vehicle control” value [3] was 0.74. The “fold changes relative to vehicle control” value [4] was 0.87, the “fold changes relative to vehicle control” value [5] was 1.14 and the “fold changes relative to vehicle control” value [6] was 0.86. For the same compound, the “fold changes relative to vehicle control” value [7] was 1.23 and the “fold changes relative to vehicle control” value [8] was 0.77.

With `Nc1nc2c(c(=O)[nH]1)N(C=O)C(CNc1ccc(C(=O)N[C@@H](CCC(=O)O)C(=O)O)cc1)CN2` (some centres unmarked) [LEU, leucovorin] the “fold changes relative to vehicle control” value ([1]; HeLa, protein HSP90AB1) was 1.08, the “fold changes relative to vehicle control” value ([2]; protein TUFM, HeLa) was 0.93 and the “fold changes relative to vehicle control” value ([3]; protein TTC27, HeLa) was 0.76. The “fold changes relative to vehicle control” value ([4]; HeLa, protein MCCC2) was 0.94, the “fold changes relative to vehicle control” value ([5]; HeLa, protein ENO1) was 1.07 and the “fold changes relative to vehicle control” value ([6]; HeLa, protein FASTKD3) was 1.02. For the same compound, the “fold changes relative to vehicle control” value ([7]; HeLa, protein ASS1) was 1.03 and the “fold changes relative to vehicle control” value ([8]; protein CDK8, HeLa) was 1.14.

With `CCCCCCOc1ccc(Cc2cnc(N)nc2N)cc1` [compound 1] the “fold changes relative to vehicle control” value [1, 9] was 1.5 fold, the “fold changes relative to vehicle control” value ([2]; protein TUFM, HeLa) was 1.18 and the “fold changes relative to vehicle control” value ([3]; captured protein TTC27, HeLa) was 0.94. For the same compound, the “fold changes relative to vehicle control” value ([4]; captured protein MCCC2, HeLa) was 0.78, the “fold changes relative to vehicle control” value [5, 10] was 1.47 fold and the “fold changes relative to vehicle control” value ([6]; captured protein FASTKD3, HeLa) was 0.93. For the same compound, the “fold changes relative to vehicle control” value [7, 11] was 1.53 fold and the “fold changes relative to vehicle control” value ([8]; captured protein CDK8, HeLa) was 0.96.

For `NCCCNc1ccc(C(=O)NC(CCC(=O)O)C(=O)O)cc1` (centres unmarked) [compound 7], the “fold changes relative to vehicle control” value ([1]; HeLa, protein HSP90AB1) was 0.98, the “fold changes relative to vehicle control” value ([2]; protein TUFM, HeLa) was 0.88 and the “fold changes relative to vehicle control” value ([3]; protein TTC27, HeLa) was 0.82. The “fold changes relative to vehicle control” value ([4]; HeLa, protein MCCC2) was 1, the “fold changes relative to vehicle control” value ([5]; HeLa, protein ENO1) was 0.9 and the “fold changes relative to vehicle control” value ([6]; HeLa, protein FASTKD3) was 0.9. The “fold changes relative to vehicle control” value ([7]; HeLa, protein ASS1) was 1.01 and the “fold changes relative to vehicle control” value ([8]; protein CDK8, HeLa) was 1.01.

With `CCCCCCOc1cccc(Cc2cnc(N)nc2N)c1` [compound 2] the “fold changes relative to vehicle control” value [1, 9] was 2.33 fold, the “fold changes relative to vehicle control” value ([2]; protein TUFM, HeLa) was 1.68 and the “fold changes relative to vehicle control” value ([3]; captured protein TTC27, HeLa) was 0.92. The “fold changes relative to vehicle control” value ([4]; captured protein MCCC2, HeLa) was 1.08, the “fold changes relative to vehicle control” value [5, 10] was 2.6 fold and the “fold changes relative to vehicle control” value ([6]; captured protein FASTKD3, HeLa) was 0.94. The “fold changes relative to vehicle control” value [7, 11] was 2.2 fold and the “fold changes relative to vehicle control” value ([8]; captured protein CDK8, HeLa) was 0.8.
